What was measured:
[1] = test system: HHV-8 BCBL-1; test: Herpes virus panel neutralization, HHV-8; type: cell-based, Human herpes virus 8
Experimental: (§1) To determine the specificity of MBX-4992, additional neutralization experiments were conducted using a panel of herpes viruses performed in the presence of MBX-4992. […] Collectively, the antiviral activity of MBX-4992 is equivalent to that of GCV indicating specific inhibition of CMV replication.

[2] = test system: HHV-6B Z29; test: Herpes virus panel neutralization, HHV-6B; type: cell-based, Human herpes virus 6B
Experimental: as §1

[3] = test system: HSV-1 E-377; test: Herpes virus panel neutralization, HSV-1; type: cell-based, Herpes simplex virus 1
Experimental: as §1

[4] = test system: AD169 CMV virus; test: Time-of-addition assay; type: cell-based, Human cytomegalovirus; settings: 10 μM added -60 to 90 minutes post-infection, infection quantified at 24 hpi
Experimental: FIG. 5A-C are graphs showing that NAPA compounds target an early, post-attachment step of the CMV virus. (A) MBX-4992 (10 μM) was added along a time course post infection with AD169 (MOI 0.2) from −60 to 90 minutes after virus addition to NHDF fibroblasts. Infection at 24 hours was quantified after an immunostain with an anti-IE1 antibody. Percent infection was normalized to untreated cells where media was added either-60 or 90 minutes after virus addition. A schematic of the experimental design is shown.
NHDF cells (10^4) were plated in a 96-well plate overnight. A working stock of MBX-4992 at 20 μM was used as a 2×to achieve a final concentration of 10 μM. […] At […], the cells were fixed with 4% paraformaldehyde, stained with a rabbit anti-IE1 antibody followed by an anti-rabbit Alexa 647, and analyzed using the Celigo cytometer. Using the −60 DMSO treated cells as 100% infectivity, the percent relative to maximum infection was determined from cells treated with drug at different time points.
To further analyze the step of CMV entry targeted by NAPA compound MBX-4992, a time of addition assay was performed. MBX-4992 (10 μM) was added at various times during […] infection (−60, 0, 15, 30, 60, and 90 minutes post-infection (mpi)) with AD169 CMV virus and viral infection was quantified at 24 hpi. […]

[5] = target: CYP3A4 (Homo sapiens, UniProt P08684); test: CYP3A4 inhibition at 10 μM; type: in vitro ADME; settings: % inhibition of CYP3A4 at 10 μM
[6] = test system: VZV Ellen; test: Herpes virus panel neutralization, VZV; type: cell-based, Varicella-Zoster virus
Experimental: as §1

[7] = test system: AD169^R; test: Cells pre-incubation / washout study; type: cell-based, Human cytomegalovirus
Experimental: (C) NHDF cells were pre-incubated with DMSO, MBX-4992 or heparin prior to virus addition. After addition of AD169^R (MOI 0.2) for 30 min, media was either unchanged or replaced with media containing DMSO, MBX-4992, or heparin. Virus infection was quantified at 24 hpi by GFP fluorescence. Percent infection was normalized to untreated cells. Statistical tests were performed using ordinary one-way ANOVA with multiple comparisons to DMSO treated cells as a control and a Dunnett's post-test: *, p<0.05; ****, p<0.0001.
NHDF cells (10^4) plated overnight in a 96-well plate were pretreated with MBX-4992 (10 μM), heparin (50 μg/mL) or DMSO for 1 hour at 37° C. The plate was then placed at 4° C. for 5 minutes followed by the addition of AD169^R CMV virus for 30 minutes. 2/3rd of the samples were aspirated post binding. Half of those samples received DMSO media, regardless of the drug the cells were previously exposed to. The remaining wells received either MBX-4992 (10 μM) or Heparin (50 μg/mL) overnight. At 18 hpi, the cells were fixed with 4% paraformaldehyde, stained with a rabbit anti-IE1 antibody followed by an anti-rabbit Alexa 647, and analyzed using the Celigo cytometer. The DMSO condition that was not aspirated post binding was set as 100% infection.
We next examined whether pre-treating cells with MBX-4992 can limit virus infection. Cells were pre-treated with MBX-4992 or heparin for […] followed by the addition of AD169^R for 30 min at 4° C. The cells were either washed out or unchanged as indicated and replaced with media containing DMSO, MBX-4992, or heparin followed by incubation at 37° C. At 18 hpi, virus infection was evaluated using a Celigo cytometer.

[8] = test system: TR, Towne, and TB40/E strains; test: CMV infection assay of MBXC-4336 with further strains; type: cell-based, Human cytomegalovirus; settings: NHDF cells, 24 hpi, IE1 (FIG. 11F-H)
Experimental: HCMV strains AD169 (A), TB40/E Flag YFP (B), Towne (C and G), TR (D and F), Merlin (E), and TB40/E (H) infection of NHDF cells pre-treated with DMSO and 0, 1, 5, or 20 μM MBX-4992 or MBXC-4336, respectively, were assessed at 24 hpi based on IE1 expression by anti-IE1 immunostain. TB40/E (I) (MOI 0.25) and AD169^R (J) (MOI 0.25) infection of HTR-svNeo cells treated with DMSO and 0, 1, 5, or 20 μM MBX-4992 were assessed at 24 hpi based on IE1 expression by anti-IE1 immunostain. The % infection was determined using DMSO-treated as 100% infection. The error bars represent values in triplicate. Statistical tests were performed using ordinary one-way ANOVA with multiple comparisons to DMSO treated cells as a control and a Dunnett's post-test *, p<0.05; **, p<0.01; ****, p<0.0001.
Fibroblasts and ARPE-19 cells (10^4) were plated in 96-well plates (Greiner, Monroe, NC). […] At 18 hours post infection (hpi) cells were stained using a rabbit anti-IE1 antibody followed by an anti-rabbit Alexa 647 and measured using a Celigo Cytometer (Parsons et al., Antiviral Res., 193:105124 (2021); Stein et al., Nat. Commun., 10:2699 (2019)). Using the DMSO treated cells as 100% infection, the percent infection of the NAPA compound-treated cells was determined. […]

Chain of CYP3A4 (P08684 whole entry, species assumed): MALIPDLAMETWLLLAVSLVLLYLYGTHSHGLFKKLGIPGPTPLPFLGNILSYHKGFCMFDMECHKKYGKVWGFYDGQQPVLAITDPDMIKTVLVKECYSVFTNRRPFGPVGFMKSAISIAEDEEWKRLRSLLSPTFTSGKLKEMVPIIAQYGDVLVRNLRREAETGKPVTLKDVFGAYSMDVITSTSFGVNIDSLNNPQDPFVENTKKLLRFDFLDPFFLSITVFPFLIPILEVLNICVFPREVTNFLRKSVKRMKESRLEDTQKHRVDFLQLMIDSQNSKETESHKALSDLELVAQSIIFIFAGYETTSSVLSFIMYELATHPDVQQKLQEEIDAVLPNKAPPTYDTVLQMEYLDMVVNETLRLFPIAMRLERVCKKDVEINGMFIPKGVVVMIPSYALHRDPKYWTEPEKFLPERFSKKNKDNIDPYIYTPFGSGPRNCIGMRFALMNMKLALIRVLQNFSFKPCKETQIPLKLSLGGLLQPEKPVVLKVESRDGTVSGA

| Structure (SMILES) | SI [1] | IC50 ([1]; Homo sapiens, BCBL1) [µM] | SI [2] | IC50 ([2]; Human betaherpesvirus 6B) [µM] | SI [3] | IC50 ([3]; Human alphaherpesvirus 1) [µM] | inhibition of infection by time of addition [4] | CYP [5] [%] | SI [6] | IC50 ([6]; Human alphaherpesvirus 3) [µM] | virus infection, drug removed ([7]; cells pre-incubated and compound sequentially removed) | virus infection, drug not removed or added back ([7]; cells pre-treated, drugs not removed or added back to washed-out cells) | effectiveness against further strains [8] |
| --- | --- | --- | --- | --- | --- | --- | --- | --- | --- | --- | --- | --- | --- |
| Cc1nc(Nc2ccc(NC(=O)c3ccco3)cc2)cc(N2CCCC2)n1 [MBX-4992] | >10 | 10 | >2 | 43.7 | <2 | > 30 | most effective at preventing infection when introduced prior to and within 30 mpi | <10 | <5 | > 30 | do not significantly impact infection | significantly inhibited virus infection | – |
| Cc1nc(Nc2cccc(NC(=O)c3ccco3)c2)cc(N2CCCCC2)n1 [MBXC-4336] | – | – | – | – | – | – | – | – | – | – | – | – | effectiveness of MBXC-4336 was validated |

Reference: patent US20250177392A1, “BROAD SPECTRUM INHIBITORS OF CYTOMEGALOVIRUS” (MICROBIOTIX, INC., priority 2022, published 2025)
